SMILES strings stand for the structures.

The nature of the data set: in vitro. The conditions noted are these: human, hela cells, % viability.
Usually viability stands for a read-out of living cells in per cent, often relative to untreated cells. As for `O=C(Cc1csc(NS(=O)(=O)c2ccc(-c3cccc([N+](=O)[O-])c3)cc2)n1)N1CCOCC1` [CBK200032], the viability at 28.5 h, 10 µM worked out at 110%. In the case of `Cc1cc(Cl)cc(Cl)c1S(=O)(=O)Nc1nc(-c2cccnc2)cs1` [CBK200035], the viability at 28.5 h, 10 µM came out at 105%. The result for `C=CCN(C(=S)NCc1ccc2c(c1)OCO2)C1CCCCC1` [CBK200037] reads 97.9%; that for `O=C1c2ccccc2C(=O)c2c1cccc2S(=O)(=O)N1CCN(C(=O)C2CCCO2)CC1` (centres unmarked) [CBK200038], 40.5%. As to `O=S(=O)(c1ccc(OC(F)(F)F)cc1)N1CCN(Cc2ccc3c(c2)OCO3)CC1` [CBK200040], the viability at 28.5 h, 10 µM was 82.5%.

On to `COC(=O)c1sccc1NS(=O)(=O)c1ccc(C(F)(F)F)cc1` [CBK200041], for which the viability at 28.5 h, 10 µM was found to be 95.5%.

Consider `COC[C@@H]1CCCN1S(=O)(=O)c1ccc(C(C)C)cc1` [CBK200045], for which the viability at 28.5 h, 10 µM is 110%. To `O=[N+]([O-])c1ccc(S(=O)(=O)Nc2nnc(C3CCCCC3)s2)cc1` [CBK200049] belongs 94.8%; to `CCc1nnc(NS(=O)(=O)c2ccc(NCc3cc(Cl)ccc3O)cc2)s1` [CBK200051], 100%; to `Cc1c(Cl)cccc1S(=O)(=O)Nc1nc(CSc2ccccn2)ns1` [CBK200054], 97.2%. As to `O=C(OCCC1SC(NC2CC3C=CC2C3)=NC1=O)c1ccc(Cl)c(Cl)c1` (centres unmarked) [CBK200056T], the viability at 28.5 h, 10 µM amounted to 87.1%. Regarding `O=C(OCCC1SC(NC2CC3C=CC2C3)=NC1=O)c1c(F)cccc1F` (centres unmarked) [CBK200057T], the viability at 28.5 h, 10 µM was 89.7%.

Regarding `O=C(OCCC1SC(NC2CC3C=CC2C3)=NC1=O)c1cc(F)ccc1F` (centres unmarked) [CBK200059T], the viability at 28.5 h, 10 µM was 92.2%. Regarding `O=C(NCCC1SC(NC2CC3C=CC2C3)=NC1=O)c1ccccc1Cl` (centres unmarked) [CBK200062], the viability at 28.5 h, 10 µM came to 113%.

Consider `CC(C)(C)c1ccc(S(=O)(=O)N2CCCC[C@H]2COC(=O)CCC(=O)O)cc1` [CBK200063], for which the viability at 28.5 h, 10 µM turned out to be 117%.

Regarding `CC(C)(C)c1ccc(S(=O)(=O)N2CCCC[C@H]2COC(=O)COCC(=O)O)cc1` [CBK200064], the viability at 28.5 h, 10 µM was determined as 96.6%. With `CC(C)(C)c1ccc(S(=O)(=O)N2CCCC[C@H]2CCOC(=O)c2ncccc2C(=O)O)cc1` [CBK200066], the viability at 28.5 h, 10 µM worked out at 98.7%. Regarding `CC(C)(C)c1ccc(S(=O)(=O)N2CCCC[C@H]2CCOC(=O)/C=C\C(=O)O)cc1` [CBK200069], the viability at 28.5 h, 10 µM amounted to 89.6%. As to `C=C(C)Cn1c(-c2ccccc2C)nnc1S(=O)(=O)CC(C)C` [CBK200074], the viability at 28.5 h, 10 µM came out at 80%. For `C=C(C)Cn1c(SCC(C)C)nnc1-c1cnccc1C` [CBK200075T], the viability at 28.5 h, 10 µM amounted to 96%.

As for `Cc1ccccc1-c1nnc2n1CCCCC2` [CBK200076A], the viability at 28.5 h, 10 µM amounted to 108%. The result for `C=C(C)Cn1c(SCC(C)C)nnc1-c1ccccc1F` [CBK200077] reads 107%; that for `Cc1ccccc1-c1nnc(SC(C)C)n1CCNCCO` [CBK200084T], 86.9%. Regarding `C=C(C)Cn1c(SCC(C)C)nnc1-c1ccc(F)cc1` [CBK200085], the viability at 28.5 h, 10 µM worked out at 99.9%. To `Cc1ccccc1-c1nnc(SC(C)C)n1CCN(C)S(C)(=O)=O` [CBK200088] belongs 101%; to `Cc1ccccc1-c1nnc(SC(C)C)n1CCN(C)CC(F)(F)F` [CBK200090], 92.3%. The result for `CC(C)CSc1nnc(-c2ccccc2F)n1CC(C)C` [CBK200091] reads 95.8%; that for `Brc1ccccc1-c1nnc2n1CCCCC2` [CBK200092], 90.9%; that for `COc1cc(C(C)c2cc3c(cc2O)OCO3)cc(OC)c1OC` (centres unmarked) [CBK200103], 36.3%. Regarding `COC(=O)C1Cc2cc3c(cc2C(c2cc(OC)c(OC)c(OC)c2)N1)OCO3` (centres unmarked) [CBK200104T], the viability at 28.5 h, 10 µM was 65.5%. On to `COc1cc2c(cc1C(C)c1ccc3c(c1)OCO3)OCO2` (centres unmarked) [CBK200107], for which the viability at 28.5 h, 10 µM was found to be 97.4%.

As to `COc1ccc(C(C)c2cc3c(cc2OCC(=O)O)OCO3)cc1` (centres unmarked) [CBK200108], the viability at 28.5 h, 10 µM turned out to be 87.4%. The result for `CC(c1ccc2c(c1)OCO2)c1cc2c(cc1OCCO)OCO2` (centres unmarked) [CBK200110] reads 98.9%; that for `O=C(O)Cc1sc(-c2ccc3c(c2)OCO3)nc1-c1ccccc1` [CBK200114], 87.3%; that for `Cc1onc(-c2ccccc2)c1C(=O)NCc1ccccc1` [CBK200116], 99.4%.

Consider `Cc1ccc(C(=O)NC2CCCC2)cn1` [CBK200117], for which the viability at 28.5 h, 10 µM stood at 91.6%.

Turning to `O=C(NC1CCCC1)c1ccc2ncccc2c1` [CBK200118], the viability at 28.5 h, 10 µM is 90.2%.

In the case of `CN1CCN(c2ccc(C(=O)NC3CCCC3)cc2)CC1` [CBK200119], the viability at 28.5 h, 10 µM came out at 78.5%. The result for `O=C(OCc1cc2ccccc2cn1)N1CCOCC1` [CBK200121] reads 102%.

For the compound `C[C@@H]1CN(C(=O)OCCn2cccc2)C[C@H](C)O1` [CBK200123], the viability at 28.5 h, 10 µM amounted to 82.2%.

Turning to `O=C(Nc1ccncc1)OCCc1cccnc1` [CBK200125], the viability at 28.5 h, 10 µM came out at 94.2%.

As for `Cc1cc(NC(=O)OCc2cccnc2C)c2ccccc2n1` [CBK200129], the viability at 28.5 h, 10 µM is 95.9%. `Cc1ccc(CNC(=O)OCc2cccnc2C)o1` [CBK200131]: the viability at 28.5 h, 10 µM came out at 99%. On to `O=C(NCc1ccc(C(F)(F)F)nc1)OCCc1ccncc1` [CBK200132], for which the viability at 28.5 h, 10 µM worked out at 93.2%.

On to `O=C(NCc1ccncc1)OCCc1ccncc1` [CBK200133], for which the viability at 28.5 h, 10 µM stood at 108%. Turning to `Cc1ncccc1COC(=O)N1c2ccc(F)cc2CCC1C` (centres unmarked) [CBK200139], the viability at 28.5 h, 10 µM is 92.2%.

For the compound `O=C(OCCc1ccncc1)N1CCc2ccccc21` [CBK200140], the viability at 28.5 h, 10 µM was determined as 94.9%.

Take `O=C(OCCc1ccncc1)N1Cc2ccccc2C1` [CBK200141]: the viability at 28.5 h, 10 µM was found to be 95.5%. To `C[C@@H]1CN(C(=O)OCc2nccn2C)C[C@H](C)O1` [CBK200142] belongs 103%; to `COc1c(C)cnc(COC(=O)N2C[C@@H](C)O[C@@H](C)C2)c1C` [CBK200143], 96.2%; to `Cc1cc2nc(COC(=O)N3CCOCC3)[nH]c2cc1C` [CBK200144], 107%. For `COc1c(C)cnc(COC(=O)N2CCOCC2)c1C` [CBK200145], the viability at 28.5 h, 10 µM came out at 105%. For `O=C(OCc1nc2ccccc2[nH]1)N1CCOCC1` [CBK200146], the viability at 28.5 h, 10 µM was 109%.

`Cc1nc(-c2ccccc2)ncc1COC(=O)N1CCOCC1` [CBK200147]: the viability at 28.5 h, 10 µM was determined as 112%. Take `Cc1ccsc1CNC(=O)OCC1CCN(C)CC1` [CBK200149]: the viability at 28.5 h, 10 µM turned out to be 96.9%. Consider `Cc1ncccc1COC(=O)N1CCSCC1` [CBK200156], for which the viability at 28.5 h, 10 µM is 104%.

Regarding `O=C(OCCc1ccncc1)N1CCCC(F)(F)C1` [CBK200157], the viability at 28.5 h, 10 µM came out at 92.2%. For `O=C(OCCc1cccnc1)N1CCC(C(F)(F)F)CC1` [CBK200159], the viability at 28.5 h, 10 µM turned out to be 94.9%. Turning to `COC1CCN(C(=O)OCCc2cccnc2)CC1` [CBK200161], the viability at 28.5 h, 10 µM was found to be 89.2%. For the compound `O=C(OCc1cc2ccccc2o1)N1CCOCC1` [CBK200162], the viability at 28.5 h, 10 µM came out at 98.1%.

`O=C(OCc1ccc2sccc2c1)N1CCOCC1` [CBK200163]: the viability at 28.5 h, 10 µM stood at 101%. The result for `Cc1noc(C)c1C(=O)N1CCN(c2ccccc2)CC1` [CBK200165] reads 97.8%.

With `O=C(c1nc2ccccc2[nH]1)N1CCN(c2ccccc2)CC1` [CBK200167], the viability at 28.5 h, 10 µM worked out at 103%.

As for `Cn1cc(CC(=O)N2CCN(c3ccccc3)CC2)c2ccccc21` [CBK200168], the viability at 28.5 h, 10 µM worked out at 95.8%. To `Cc1ncccc1C(=O)N1CCN(Cc2ccccc2)CC1` [CBK200171] belongs 97.7%; to `O=C(Cc1ccccn1)N1CCN(Cc2ccccc2)CC1` [CBK200174], 103%; to `O=C(c1ccc2ncccc2c1)N1CCN(Cc2ccccc2)CC1` [CBK200175], 99.1%. To `Cc1nc(C)c(C(=O)N2CCN(Cc3ccccc3)CC2)s1` [CBK200177] belongs 101%; to `O=C(c1cnccn1)N1CCC(Cc2ccccc2)CC1` [CBK200181], 92.6%; to `O=C(Cc1cccnc1)N1CCC(Cc2ccccc2)CC1` [CBK200183], 97%.

For `O=C(c1ccc2ccccc2n1)N1CCC(Cc2ccccc2)CC1` [CBK200184], the viability at 28.5 h, 10 µM was 96.4%. The result for `O=C(NCc1ccccc1)c1ccncc1` [CBK200189] reads 108%. Consider `O=C(NCc1ccccc1)c1ccnc2ccccc12` [CBK200191], for which the viability at 28.5 h, 10 µM came to 83.7%. Regarding `Cc1ccncc1C(=O)NCc1ccccc1` [CBK200193], the viability at 28.5 h, 10 µM is 110%. To `O=C(NCc1ccccc1)c1cnccc1C(F)(F)F` [CBK200194] belongs 92.3%; to `Cn1c(C(=O)NCc2ccccc2)cc2ccccc21` [CBK200195], 81.7%. As for `Cn1cc(C(=O)NCc2ccccc2)c2ccccc21` [CBK200196], the viability at 28.5 h, 10 µM stood at 72.9%. To `O=C(NCc1ccccc1)c1ccno1` [CBK200197] belongs 86.9%; to `Cc1cc(C(=O)NCc2ccccc2)n[nH]1` [CBK200198], 95.7%; to `Cn1cncc1C(=O)NCc1ccccc1` [CBK200199], 96.9%.

On to `Cn1cc(CC(=O)NCc2ccccc2)c2ccccc21` [CBK200200], for which the viability at 28.5 h, 10 µM came out at 84.1%.

Turning to `O=C(c1ccccn1)N1CCN(CCc2ccccc2)CC1` [CBK200201], the viability at 28.5 h, 10 µM stood at 99.1%. The result for `Cc1ncccc1COC(=O)N1c2ccccc2CCC1C` (centres unmarked) [CBK200204] reads 101%; that for `Cc1ccc(CNC(=O)OCCN2CCN(C)CC2)o1` [CBK200205], 112%; that for `CN1CCN(CCOC(=O)N2CCC(C(F)(F)F)CC2)CC1` [CBK200206], 103%. To `CN1CCN(CCOC(=O)N2CCCC(C(F)(F)F)C2)CC1` (centres unmarked) [CBK200207] belongs 87.2%.

The values are drawn from paper PMC12040169 (PLOS Biology, 2025).
